These results are taken from paper PMC4907692, “Engineering vanilloid-sensitivity into the rat TRPV2 channel” (eLife, 2016).

This assay has as its target T1, TRPV1 triple mutant that left S512 intact (Rattus norvegicus, UniProt O35433, E570Q/M547L/T550L).
T1 construct: expressed in transfected cells; host or cells: Xenopus oocytes (cRNA injection)
Nature of the assay: Two-electrode voltage-clamp in Xenopus oocytes, TRPV1 triple mutant with S512 intact. Conditions: 100 nM RTx. Type of assay: cell-based. From the text:
To further investigate the putative vanilloid binding pocket in TRPV1, we inspected the cryo-EM structure of TRPV1, looking for residues that are located nearby to the putative RTx density (Figure 1B; regions/residues highlighted in yellow) and that differ between TRPV1 and TRPV2 channels (Figure 3—figure supplement 1; regions highlighted in magenta). […] To quantify the contribution of each of these residues to TRPV1 channel activation by RTx under our experimental conditions, we mutated each to the corresponding residue in TRPV2. We then expressed each construct in oocytes and used the two electrode voltage-clamp technique to study activation by RTx and by the non-specific TRPV channel activator 2-APB. We recorded time courses for channel activation by each agonist while stepping the membrane potential from −60 to +60 mV every 3 s from a holding potential of 0 mV using an external recording solution containing 100 mM KCl (internal K^+ concentration in a healthy oocyte is 100 mM) (Figure 3A, left). We also recorded current-voltage (I-V) relations by stepping over a wider range of voltages in the absence and presence of activators, or in the presence of ruthenium red (RR), a non-specific inhibitor of TRP channels (Figure 3A, right). […]

T1 sequence (O35433 whole entry M547L/T550L/E570Q): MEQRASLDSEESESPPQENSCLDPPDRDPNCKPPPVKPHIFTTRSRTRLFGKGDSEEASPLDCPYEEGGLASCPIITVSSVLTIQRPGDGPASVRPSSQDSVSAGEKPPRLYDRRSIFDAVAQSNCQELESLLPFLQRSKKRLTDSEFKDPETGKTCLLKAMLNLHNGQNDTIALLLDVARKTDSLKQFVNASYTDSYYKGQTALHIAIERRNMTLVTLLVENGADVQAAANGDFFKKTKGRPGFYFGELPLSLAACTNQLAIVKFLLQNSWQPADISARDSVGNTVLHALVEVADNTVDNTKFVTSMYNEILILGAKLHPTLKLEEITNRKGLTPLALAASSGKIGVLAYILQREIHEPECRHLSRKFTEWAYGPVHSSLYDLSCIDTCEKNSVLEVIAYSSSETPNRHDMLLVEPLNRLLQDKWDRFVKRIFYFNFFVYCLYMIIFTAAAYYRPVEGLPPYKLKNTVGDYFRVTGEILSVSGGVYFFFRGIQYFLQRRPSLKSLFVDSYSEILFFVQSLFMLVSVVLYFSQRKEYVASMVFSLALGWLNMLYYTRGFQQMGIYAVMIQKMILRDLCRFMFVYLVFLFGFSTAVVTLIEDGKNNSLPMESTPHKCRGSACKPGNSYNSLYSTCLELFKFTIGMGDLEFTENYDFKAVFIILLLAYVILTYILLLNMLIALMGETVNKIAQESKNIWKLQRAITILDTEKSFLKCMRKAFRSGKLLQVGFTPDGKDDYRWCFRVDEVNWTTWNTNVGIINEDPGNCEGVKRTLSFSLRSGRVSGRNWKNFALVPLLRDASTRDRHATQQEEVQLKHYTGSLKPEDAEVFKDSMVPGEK

Consider `C=C(C)[C@]12C[C@@H](C)[C@@]34O[C@](Cc5ccccc5)(O[C@@H]1[C@@H]3C=C(COC(=O)Cc1ccc(O)c(OC)c1)C[C@]1(O)C(=O)C(C)=C[C@@H]41)O2` [RTx, resiniferatoxin], for which the “channel activation by RTx” value is listed as “retained sensitivity”.
